Measurements reported in patent US5559115A, “Oncogene function-inhibitory agent, method for inhibiting oncogene function, and treatment of cancer” (Terumo Kabushiki Kaisha, priority 1993, dated 1996).
≈ marks a conversion by molar mass, not a printed value. Entries after “also recorded” stand apart in the source; their conditions may differ. Where two headings read alike, the source gives them in different places.

What was measured:
cell morphology = assay: Cell morphology normalizing activity (extract, fractions, purified product); assay type: cell-based
Procedure: The inventors of the present invention then succeeded in the isolation and characterization of the active component in the extract. The present invention has been completed on the bases of such study.
To a small amount of chloroform was dissolved 1.34 g of the extract, and the resulting solution was charged in a column having packed therein 10 g of silica gel (Merck silicagel 60, manufactured by Merck). To the column was first added 100% chloroform to elute the impurities, and then, 100:1 chloroform:methanol was added and the eluate was fractionated into portions of about 10 ml. Each fraction was examined by thin layer chromatography (silica gel; 20:1 chloroform:methanol solvent; UV 330 nm), and fractions having an Rf of 0.56 with blue color were collected.
The thus obtained active substance was dissolved in a small amount of methanol. After removing the precipitates, the solution was charged in a column of Toyopearl HW-40 that had been equilibrated with methanol to thereby carry out the gel filtration chromatography. The column was eluted with 100% methanol and 3 ml fractions were collected. The thus collected fractions were analyzed by thin layer chromatography using 20:1 chloroform:methanol for the developer. […] This substance is hereinafter referred to as III-121C.

K-ras-NRK cells [1] = assay: Action mechanism: flow-cytometric DNA content analysis of K-ras-NRK cells; assay type: cell-based, rat; conditions: 24 hours; III-121C 0.3 and 1 μg/ml, vinblastine 0.1 μg/ml (FIG. 11)
Procedure: FIGS. 11(a) to (d) are graphs showing the results of flow-cytometric analysis wherein the number of cells is depicted in relation to their DNA content, upon addition of no reagent (FIG. 11(a)), 0.3 μg/ml of III-121C (FIG. 11(b)), 1 μg/ml of III-121C (FIG. 11(c)), and 0.1 μg/ml of vinblastine (FIG. 11(d)) to the K-ras NRK cell culture.
To the cells of K-ras-NRK in their propagation was added either one of III-121C and vinblastine. No reagent was added to the control cells. After 24 hours from the addition, the cells were fractionated with a cell sorter to examine the DNA quantity in relation to the number of the cells.

K-ras^ts NRK cells = assay: Propagation inhibitory effect on K-ras^ts NRK cells; assay type: cell-based, rat; conditions: for IC50: Rattus norvegicus, NRK, 72 h, K-ras^ts NRK, 3 days, read-out: IC50, cell propagation
Procedure: (§1) Normal rat kidney cell, NRK-49 (Dainihon Pharmaceutical K.K.) and normal mouse cell, NIH 3T3 (JCRB Cell Bank); and K-ras NIH 3T3, H-ras NIH 3T3, and N-ras NIH 3T3 (Tokyo University, Medical Science Institute, Japan) which are cell lines that have been transformed with Kirsten sarcoma virus, Harvey sarcoma virus, and neuroblastoma virus, respectively, were incubated at 37° C. in the similar manner.
Cells of K-ras^ts -NRK were inoculated in wells of 24 wells plastic plate (Costar 3524, manufactured by Costar) at 1.0×10^4 /DMEM 1 ml/well, and the plate was incubated in an incubator of 5% CO2 at 33° C. for one day. III-121C was added to the thus incubated cells to different concentrations and the incubation was continued. After predetermined periods, the medium was removed of the cell culture, and cells were peeled off the wall of the well by using trypsin. DMEM was added to the well to uniformly suspend the cells, and the cell concentration in the suspension was measured with Coulter counter (ZM type manufactured by Coulter Electronics) to obtain the results shown in FIG. 7.
(§2) Next, cells of different types were inoculated in wells of 12 wells plastic plate (Costar 3521, manufactured by Costar) at 2.0×10^4 /DMEM 1 ml/well, and the plate was incubated in an incubator of 5% CO2 for one day. III-121C was added to the thus incubated cells to different concentrations and incubation was continued for another 3 days. The number of cells was measured by repeating the above-described procedure to determine the concentration (IC50) of the III-121C required to inhibit the cell propagation to 50%.

NRK cells = assay: Propagation inhibitory effect on NRK cells; assay type: cell-based; conditions: Rattus norvegicus, 72 h, 3 days, read-out: IC50, cell propagation
Procedure: as §1, §2

K-ras-NRK tumor = assay: Growth of K-ras-NRK tumor in nude mice; assay type: in vivo; conditions: K-ras-NRK s.c., intraperitoneal, days 0, 2, 4 (FIG. 8)
Procedure: To 4 groups of nude mice (each group comprising 6 individuals) were subcutaneously inoculated 1×10^6 cells of K-ras-NRK on their back. Formation of a small tumor was recognized after 4 days from the inoculation, and intraperitoneal administration of III-121C at different doses was started on this day (day 0). III-121C was additionally administered after two days and four days from the start of the administration to measure the volume of the tumor. No III-121C was administered to the mice of the control group. The results are depicted in FIG. 8.

K-ras^ts-NRK cells = assay: Effect on production of actin filaments, K-ras^ts-NRK cells; assay type: cell-based, rat; conditions: 1 μg/ml, one day
Procedure: (§3) A cover glass with a diameter of 18 mm (manufactured by Matsunami Glass Industry K.K.) that had been washed with 100% ethanol, dried, and sterilized was placed in wells of 12 wells plastic plate, and the cells were inoculated in the wells at 3.0×10^4 /DMEM 1 ml/well. The plate was incubated in an incubator of 5% CO2 for 1 day. To the thus incubated cell culture was added 1 μg/ml of III-121C, and the incubation was continued for another one day. The cell culture was then fixed with paraformaldehyde. The fixed cell culture was reacted with rhodamine pharoidine reagent (Molecular Probe Inc.) to examine the cell morphology by fluorescence microscope with G filter (excitation, 546 nm).

K-ras-NRK cells [2] = assay: Effect on production of actin filaments, K-ras-NRK cells; assay type: cell-based, rat; conditions: 1 μg/ml, one day
Procedure: as §3

cancer cell = assay: 50% inhibition of cancer cell propagation, various cell lines; assay type: cell-based; conditions: varies by type of cancer cell; approximately; Table 1; read-out: concentration (IC50) required for 50% inhibition of the cancer cell propagation
Procedure: as §2

RSV NRK cells = assay: Propagation inhibitory effect on RSV NRK cells; assay type: cell-based; conditions: Rattus norvegicus, 72 h, 33° C., 3 days, read-out: IC50, cell propagation
H-ras-NIH 3T3 cells = assay: Activity to induce changes in cell morphology, H-ras-NIH 3T3 cells; assay type: cell-based, mouse; conditions: 0.3 μg/ml, 2 days
Procedure: as §1
The effect of the III-121C on various types of cultured cells was evaluated by inoculating each type of cells in wells of 24 wells plastic plate (Costar 3524, manufactured by Costar) at 3×10^4 cells/1 ml medium/well; incubating the plate in an incubator of 5% CO2 for one day; and adding the III-121C sample to the cell cultures to observe the cell morphology for another two days.
K-ras-NIH 3T3 and H-ras-NIH 3T3 are transformed cell lines, and the cells are elongated with projections or processes on their surface, and grow atop the other. N-ras-NIH 3T3 cells are also elongated and their projections or processes are even longer.

K-ras-NIH 3T3 cells = assay: Effect on production of actin filaments, K-ras-NIH 3T3 cells; assay type: cell-based, mouse; conditions: 1 μg/ml, one day
Procedure: as §3

CCC12CC(C(=O)OC)=C3Nc4cc5c(cc4C34CCN(CC3OC31)C42)C1C(O5)C(O)C2(CC)CC(C(=O)OC)=C3Nc4c(cc(O)c(OC)c4OC)C34CCN1C42 (centres unmarked) [III-121C]
activity of normalizing the cell morphology (cell morphology): confirmed to have an activity of normalizing the cell morphology
cell cycle / cell division inhibition (K-ras-NRK cells [1]): Absence of the cell division inhibitory activity
distribution of DNA quantity in cells (K-ras-NRK cells [1]): distribution of the DNA quantity in the cells was identical with that of the control cells
cell propagation inhibition (cell growth curve, FIG. 7) (K-ras^ts NRK cells; K-ras^ts-NRK, 33° C., different concentrations): inhibited the cell propagation in concentration dependent manner
IC50 (K-ras^ts NRK cells; 33° C.): 0.29 µg/mL (≈ 0.365 µM)
IC50 (K-ras^ts NRK cells; 39° C.): 0.2 µg/mL (≈ 0.252 µM)
IC50 (NRK cells): 0.19 µg/mL (≈ 0.239 µM)
tumor growth inhibition (K-ras-NRK tumor): the growth of the tumor was inhibited in a dose dependent manner; also recorded: growth suppression of tumors in living mammals
actin filaments / cell morphology (K-ras^ts-NRK cells): morphology of normal cells with longitudinally extending linear actin filaments
actin filaments / cell morphology (K-ras-NRK cells [2]): morphology of normal cells with longitudinally extending linear actin filaments
IC50 (cancer cell): 0.1 to 0.5 µg/mL (≈ 0.126 to 0.629 µM)
IC50 (RSV NRK cells): 0.11 µg/mL (≈ 0.138 µM)
change in cell morphology and growth habits (H-ras-NIH 3T3 cells): the cells changed their morphology and growth habits to those of normal NIH 3T3 cells, and became flat with an increased area of contact
actin filaments / cell morphology (K-ras-NIH 3T3 cells): morphology of normal cells with longitudinally extending linear actin filaments
